We go through one compound from patent publication US10330673B2, “Fluorescent chemical sensor for biological amines” (The Curators of the University of Missouri, priority 2013, dated 2019).

Molecules are shown by their SMILES.

Data set [1] is described as follows: Fluorescence titration of sensor with glycine. It counts as binding. The conditions noted are these: amine guest glycine.
A short description of data set [2]: Binding affinity toward free primary amines.
Data set [3] in a line: Fluorescence quantum yield of sensor bound to glutamate. It is filed as physicochemical. On the procedure: Steady-state fluorescence spectroscopic studies were performed using a Horiba Scientific Fluorolog-3 Model FL3C-111 spectrofluorometer and data was collected and analyzed using HJY FluorEssence™ 3.5.1.20 software package. UV-visible spectra were obtained on a Varian Cary 1E UV-visible spectrophotometer. A stock solution of each benzene- or thiophene-based coumarin-3-aldehyde derivative (1 μM) in buffer (25 mM HEPES, 50 mM Na2S2O3, pH=5.0) was prepared. Each solution contained 1% (v/v) DMSO as a cosolvent except as noted. The slit width was 2 nm for both excitation and emission. The bound benzene- and thiophene-coumarin-3-aldehyde derivatives contained 500 mM glutamate (pH=5.0).
To determine the relative quantum yield of fluorescence (Φfl) for the benzene-based derivatives, a 1.0 μM solution of fluorescein (absolute Φfl=0.85) in 0.1 N NaOH (pH 13) was used as a fluorescence standard. The unbound derivatives were excited at 473 nm and the bound derivatives were excited at 488 nm. To determine the relative quantum yield of fluorescence (Φfl) for the thiophene-based derivatives, a 1.0 μM solution of rhodamine B (absolute Φfl=0.31) in water (pH 7) was used as a fluorescence standard. The unbound derivatives were excited at 473 nm and the bound derivatives were excited at 515 nm. Quantum yields were obtained in triplicate and calculated as per the following equation: […]

Data set [4] has as its system norepinephrine-enriched chromaffin cells. Put plainly: Live-cell confocal imaging with Compound I-2, norepinephrine-enriched cells. It counts as cell-based, bovine. The conditions noted are these: 0.1 μM. The method, then:
Chromaffin cells were separated into norepinephrine-enriched and epinephrine-enriched fractions by centrifugation on a Percoll gradient. Both populations were independently incubated with a 0.1 μM solution of Compound I-2 at 37° C. for 30 minutes and then washed to remove excess sensor and plated.
Chromaffin cells were isolated from bovine adrenal glands as previously described. Following centrifugation at 18° C. at 13,000 rpm for 45 minutes in the Percoll gradient, chromaffin cells separate into fractions enriched with either epinephrine-enriched cells (denser band) and norepinephrine-enriched cells (lighter band). Moro, M. A.; Lépez, M. G.; Gandía, L.; Michelena, P.; Garcia, G. Separation and culture of living adrenaline- and noradrenaline-containing cells from bovine adrenal medullae. Anal. Biochem. 1990, 185, 243-248. Over 90% of the catecholamine content found in the cells in the denser fraction are epinephrine, whereas approximately 67% of the catecholamine content in the lighter fraction are norepinephrine. Liu, X.; Barizuddin, S.; Shin, W.; Mathai, C. J.; Gangopadhyay, S.; Gillis, K. D. Microwell device for targeting single cells to electrochemical microelectrodes for high-throughput amperometric detection of quantal exocytosis. Anal. Chem. 2011, 83, 2445-2451. The two cell fractions were collected from the Percoll gradient with careful pipetting and separately cultured. […]

`CCN(CC)c1ccc2c(-c3ccc(OC)cc3)c(C=O)c(=O)oc2c1` [Compound I-2, 7-diethylamino-3-formyl-4-(4′-methoxyphenyl)coumarin] displayed a Ka in data set [1] (fluorescence spectroscopy, λex = 488 nm, λem = 521 nm) of 8 M⁻¹. Further, the “Isat/Io (λex = 488 nm)” value in data set [1] (intensity at saturation from fit to binding isotherm) is on record as 11.1. For the same compound, in data set [2], the “binding affinities toward free primary amines” value was roughly 10 M⁻¹. The “Quantum Yield (Φ)” value in data set [3] (bound to glutamate) is reported as 0.0095. Further, the “difference in quantum yields, bound to glutamate vs bound to norepinephrine” value in data set [3] (in words) is given as “three-fold”. For the same compound, the “cell fluorescence, confocal microscopy” value in data set [4] (37° C., 30 minutes, 488 nm excitation (bound sensor)) is recorded as “strong, punctate fluorescence”; in data set [4] (excited at 440 nm (unbound sensor)), “No significant fluorescence”.
